From ChEMBL document CHEMBL1201862, “PubChem BioAssay data set” (2004)
Several values for one entry are separate records, joined by “and”; a condition that tells them apart may be missing. Equal values may be shown once.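 1) Cells in 96-well plates. 2) Compound, 48 h, 5 concentrations. 3) Linear interpolation between surrounding doses. 4) Unreached endpoint = highest concentration. GI50 marks 50% less growth.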 Activity calls are given as the source filed them. Cut-off read from the data, not from the text of the source: active = GI50 up to about 1.1 µM and inactive = higher.

Key:
Test in all cases: growth of human tumour cells (NCI), 48 h
786-0 = test system: 786-0
A498 = test system: A498
A549 = test system: A549
ACHN = test system: ACHN
BT-549 = test system: BT-549
CAKI-1 = test system: CAKI-1
HCC 2998 = test system: HCC 2998
HCT-15 = test system: HCT-15
HOP-62 = test system: HOP-62
HT-29 = test system: HT-29
IGROV-1 = test system: IGROV-1
K562 = test system: K562
KM12 = test system: KM12
LOX IMVI = test system: LOX IMVI
M14 = test system: M14
MCF7 = test system: MCF7
MDA-MB-231 = test system: MDA-MB-231
MDA-MB-435 = test system: MDA-MB-435
MDA-N = test system: MDA-N
Malme-3M = test system: Malme-3M
NCI-H226 = test system: NCI-H226
NCI-H23 = test system: NCI-H23
NCI-H460 = test system: NCI-H460
NCI-H522 = test system: NCI-H522
NCI/ADR-RES = test system: NCI/ADR-RES
OVCAR-3 = test system: OVCAR-3
OVCAR-5 = test system: OVCAR-5
OVCAR-8 = test system: OVCAR-8
PC-3 = test system: PC-3
RPMI-8226 = test system: RPMI-8226
SF-268 = test system: SF-268
SF-295 = test system: SF-295
SF-539 = test system: SF-539
SK-MEL-28 = test system: SK-MEL-28
SK-MEL-5 = test system: SK-MEL-5
SK-OV-3 = test system: SK-OV-3
SN12C = test system: SN12C
SNB-75 = test system: SNB-75
SR = test system: SR
SW-620 = test system: SW-620
T47D = test system: T47D
TK-10 = test system: TK-10
UACC-257 = test system: UACC-257
UACC-62 = test system: UACC-62
UO-31 = test system: UO-31
CCRF-CEM = test system: CCRF-CEM
COLO 205 = test system: COLO 205
DU-145 = test system: DU-145
EKVX = test system: EKVX
HCT-116 = test system: HCT-116
HL-60 = test system: HL-60
HOP-92 = test system: HOP-92
MOLT-4 = test system: MOLT-4
OVCAR-4 = test system: OVCAR-4
SK-MEL-2 = test system: SK-MEL-2
SNB-19 = test system: SNB-19
U-251 = test system: U-251
Hs-578T = test system: Hs-578T
RXF 393 = test system: RXF 393

## CC(=O)OC1COC(n2c(N)c(C#N)c(C)c(C#N)c2=S)C(OC(C)=O)C1OC(C)=O (stereo not given)
786-0
  GI50: > 100 µM (inactive)
A498
  GI50: > 100 µM (inactive)
A549
  GI50: > 100 µM (inactive)
ACHN
  GI50: 59.6 µM (inactive)
BT-549
  GI50: > 100 µM (inactive)
CAKI-1
  GI50: > 100 µM (inactive)
HCC 2998
  GI50: 75.3 µM (inactive)
HCT-15
  GI50: > 100 µM
HOP-62
  GI50: > 100 µM (inactive)
HT-29
  GI50: > 100 µM (inactive)
IGROV-1
  GI50: > 100 µM (inactive)
K562
  GI50: 58.9 µM (inactive)
KM12
  GI50: > 100 µM (inactive)
LOX IMVI
  GI50: > 100 µM (inactive)
M14
  GI50: > 100 µM (inactive)
MCF7
  GI50: 88.1 µM (inactive)
MDA-MB-231
  GI50: > 100 µM (inactive)
MDA-MB-435
  GI50: > 100 µM (inactive)
MDA-N
  GI50: > 100 µM (inactive)
Malme-3M
  GI50: > 100 µM (inactive)
NCI-H226
  GI50: > 100 µM (inactive)
NCI-H23
  GI50: > 100 µM (inactive)
NCI-H460
  GI50: > 100 µM (inactive)
NCI-H522
  GI50: > 100 µM (inactive)
NCI/ADR-RES
  GI50: > 100 µM (inactive)
OVCAR-3
  GI50: > 100 µM (inactive)
OVCAR-5
  GI50: > 100 µM (inactive)
OVCAR-8
  GI50: > 100 µM (inactive)
PC-3
  GI50: 76.7 µM (inactive)
RPMI-8226
  GI50: > 100 µM (inactive)
SF-268
  GI50: > 100 µM (inactive) and 85.5 µM (inactive)
SF-295
  GI50: > 100 µM (inactive)
SF-539
  GI50: > 100 µM (inactive)
SK-MEL-28
  GI50: > 100 µM (inactive)
SK-MEL-5
  GI50: > 100 µM (inactive)
SK-OV-3
  GI50: > 100 µM (inactive)
SN12C
  GI50: > 100 µM (inactive)
SNB-75
  GI50: > 100 µM (inactive)
SR
  GI50: > 100 µM (inactive) and 54.1 µM (inactive)
SW-620
  GI50: > 100 µM (inactive)
T47D
  GI50: 55.3 µM (inactive) and 58.3 µM (inactive)
TK-10
  GI50: > 100 µM (inactive)
UACC-257
  GI50: > 100 µM (inactive)
UACC-62
  GI50: 66.4 µM (inactive)
UO-31
  GI50: > 100 µM (inactive)

## N#CC(O)CCOCc1ccccc1 (stereo not given)
786-0
  GI50: 78.7 µM (inactive)
A498
  GI50: > 100 µM (inactive)
A549
  GI50: > 100 µM (inactive)
ACHN
  GI50: 39.4 µM (inactive)
BT-549
  GI50: > 100 µM (inactive)
CAKI-1
  GI50: 17.7 µM (inactive)
CCRF-CEM
  GI50: 35.4 µM (inactive)
COLO 205
  GI50: > 100 µM (inactive)
DU-145
  GI50: > 100 µM (inactive)
EKVX
  GI50: > 100 µM (inactive)
HCT-116
  GI50: 66.5 µM (inactive)
HCT-15
  GI50: 52.4 µM
HL-60
  GI50: 34.4 µM (inactive)
HOP-62
  GI50: > 100 µM (inactive)
HOP-92
  GI50: 65.2 µM (inactive)
HT-29
  GI50: 38.6 µM (inactive)
IGROV-1
  GI50: > 100 µM (inactive)
K562
  GI50: 80.7 µM (inactive)
KM12
  GI50: > 100 µM (inactive)
LOX IMVI
  GI50: 46.9 µM (inactive)
M14
  GI50: > 100 µM (inactive)
MCF7
  GI50: 41.6 µM (inactive)
MDA-MB-231
  GI50: > 100 µM (inactive)
MDA-MB-435
  GI50: > 100 µM (inactive)
MDA-N
  GI50: 86.7 µM (inactive)
MOLT-4
  GI50: 3.39 µM (inactive)
Malme-3M
  GI50: > 10 µM (inactive)
NCI-H226
  GI50: > 100 µM (inactive)
NCI-H23
  GI50: > 100 µM (inactive)
NCI-H460
  GI50: > 100 µM (inactive)
NCI-H522
  GI50: 20.5 µM (inactive)
NCI/ADR-RES
  GI50: > 100 µM (inactive)
OVCAR-3
  GI50: > 100 µM (inactive)
OVCAR-4
  GI50: > 100 µM (inactive)
OVCAR-5
  GI50: > 100 µM (inactive)
OVCAR-8
  GI50: > 100 µM (inactive)
PC-3
  GI50: > 100 µM (inactive)
RPMI-8226
  GI50: 41.7 µM (inactive)
SF-268
  GI50: 5.56 µM (inactive)
SF-295
  GI50: > 100 µM (inactive)
SF-539
  GI50: 85.3 µM (inactive)
SK-MEL-28
  GI50: > 100 µM (inactive)
SK-MEL-2
  GI50: > 100 µM (inactive)
SK-MEL-5
  GI50: > 100 µM (inactive)
SK-OV-3
  GI50: > 100 µM (inactive)
SN12C
  GI50: > 100 µM (inactive)
SNB-19
  GI50: > 100 µM (inactive)
SR
  GI50: > 100 µM (inactive)
SW-620
  GI50: 45.4 µM (inactive)
T47D
  GI50: > 100 µM (inactive)
TK-10
  GI50: > 100 µM (inactive)
U-251
  GI50: > 100 µM (inactive)
UACC-257
  GI50: > 100 µM (inactive)
UACC-62
  GI50: > 100 µM (inactive)
UO-31
  GI50: 78.7 µM (inactive)

## C=C(Cl)C(=C)CCC(Cl)C(C)C (stereo not given)
786-0
  GI50: > 100 µM (inactive)
A498
  GI50: > 100 µM (inactive)
A549
  GI50: > 100 µM (inactive)
ACHN
  GI50: > 100 µM (inactive)
BT-549
  GI50: > 100 µM (inactive)
CAKI-1
  GI50: > 100 µM (inactive)
CCRF-CEM
  GI50: > 100 µM (inactive)
COLO 205
  GI50: > 100 µM (inactive)
DU-145
  GI50: > 100 µM (inactive)
EKVX
  GI50: > 100 µM (inactive)
HCC 2998
  GI50: > 100 µM (inactive)
HCT-116
  GI50: > 100 µM (inactive)
HL-60
  GI50: > 100 µM (inactive)
HOP-62
  GI50: > 100 µM (inactive)
HOP-92
  GI50: > 100 µM (inactive)
HT-29
  GI50: > 100 µM (inactive)
Hs-578T
  GI50: > 100 µM (inactive)
IGROV-1
  GI50: > 100 µM (inactive)
K562
  GI50: > 100 µM (inactive)
KM12
  GI50: > 100 µM (inactive)
LOX IMVI
  GI50: > 100 µM (inactive)
M14
  GI50: > 100 µM (inactive)
MCF7
  GI50: > 100 µM (inactive)
MDA-MB-231
  GI50: > 100 µM (inactive)
MDA-MB-435
  GI50: > 100 µM (inactive)
MDA-N
  GI50: > 100 µM (inactive)
MOLT-4
  GI50: > 100 µM (inactive)
Malme-3M
  GI50: > 100 µM (inactive)
NCI-H226
  GI50: > 100 µM (inactive)
NCI-H23
  GI50: > 100 µM (inactive)
NCI-H460
  GI50: > 100 µM (inactive)
NCI-H522
  GI50: > 100 µM (inactive)
NCI/ADR-RES
  GI50: > 100 µM (inactive)
OVCAR-3
  GI50: > 100 µM (inactive)
OVCAR-4
  GI50: > 100 µM (inactive)
OVCAR-5
  GI50: > 100 µM (inactive)
PC-3
  GI50: > 100 µM (inactive)
RPMI-8226
  GI50: > 100 µM (inactive)
RXF 393
  GI50: > 100 µM (inactive)
SF-268
  GI50: > 100 µM (inactive)
SF-295
  GI50: > 100 µM (inactive)
SF-539
  GI50: > 100 µM (inactive)
SK-MEL-28
  GI50: > 100 µM (inactive)
SK-MEL-2
  GI50: > 100 µM (inactive)
SK-MEL-5
  GI50: > 100 µM (inactive)
SK-OV-3
  GI50: > 100 µM (inactive)
SN12C
  GI50: > 100 µM (inactive)
SNB-19
  GI50: > 100 µM (inactive)
SR
  GI50: > 100 µM (inactive)
SW-620
  GI50: > 100 µM (inactive)
TK-10
  GI50: > 100 µM (inactive)
U-251
  GI50: > 100 µM (inactive)
UACC-257
  GI50: > 100 µM (inactive)
UACC-62
  GI50: > 100 µM (inactive)
UO-31
  GI50: > 100 µM (inactive)
